Source: patent US10576078B2 (Council of Scientific & Industrial Research, priority 2017, dated 2020)
Where two headings read alike, the source gives them in different places.

Assays:
[1] = test system: K562 cells; assay: K562 cell viability, CellTiter-Glo luminescent assay; type: cell-based, Human; details: Homo sapiens, 48 h
Experimental: K562 cells were treated with indicated concentrations of CFZ for 24 h or 48 h, cell viability was then assessed using the CellTiter-Glo luminescent cell viability assay (Promega). Data is mean±SEM of three independent experiments (each in triplicates). IC50 was calculated using Graphpad prism 5 software.
K562 cells were treated as indicated for 48 h and cell viability was determined by CellTiter-Glo luminescent cell viability assay (A) graphical representation of mean±SEM of three independent experiments.
(§1) Determination of CFZ's Effect on Cell Viability and Apoptosis • a. CellTitre-Glo assay: Cell viability (in FIG. 1B, FIG. 4 and FIG. 6A) assays was performed using the ATP-based CellTiter-Glo Luminescent cell viability assay (Promega Madison, Wis.) as per the manufacturer's instruction. Briefly, (1.25×10^5) K562 cells/ml (FIG. 1B and FIG. 4) or CD34+ cells from healthy donors (FIG. 6A) were cultured in 48-well plates and were treated as indicated in the respective figures and figure descriptions (vehicle; V=0.1% DMSO). Cells were then incubated with CellTitre-Glo reagent for 15 min. Luminescence was recorded in a GloMax-96 Microplate luminometer (Promega, Madison, Wis.) with an integration time of 1 s per well. • b. Analysis of apoptosis by Annexin V staining and flow cytometry • K562 (FIG. 1C-D) and primary CP-CML cells (FIG. 1H-I) were cultured in 6 well plates (2×10^5 cells/well) and were treated with indicated concentrations of compounds as described in respective figures and their descriptions. Cells were then harvested and washed, and incubated in binding buffer (Annexin V Binding Buffer, BD Pharmingen) with 0.3% Annexin V-FITC and PI for 15 min at room temperature in dark. Apoptosis was measured by FACSCalibur flow cytometer (Becton Dickenson, San Jose, Calif.). • c. TUNEL assay • Pro-apoptotic potential was analysed using a Fluorometric APO-BrdU™ TUNEL Assay Kit (Invitrogen) according to the manufacturer's protocol (FIG. 1F). Cells were treated with Vehicle (0.1% DMSO) or CFZ (5 μM) for 48 h. Cells were then fixed in formaldehyde (4%) for 25 min at 4° C., permeabilized with 0.2% Triton-X100 and washed with PBS. Cells were then incubated in Terminal Deoxynucleotidyl Transferase (TdT) reaction buffer without TdT enzyme for 7 minutes at room temperature and then in TdT buffer with TdT enzyme at 37° C. in dark. After termination of TdT reaction, cells were stained with 5 μg/ml of PI for 15 min in dark followed by washing and analysed with fluorescence microscopy.

[2] = test system: CrkL; assay: Immunoblotting of CrkL phosphorylation in K562 cells; type: cell-based, Human; details: 30 min, Y207
Experimental: K562 cells were treated as indicated for 30 min and stat5 phosphorylation at Y694 or CrkL phosphorylation at Y207 were assessed by immunoblotting. Total stat5 or β-actin expression was assessed to ensure equal loading. Pio was used as a negative control and IMT was used as a positive control. Data is one representative of 3 independent experiments.
K562 cells were cultured in 6 well plates and treated as indicated in figures or descriptions of FIG. 1E, FIG. 1G and FIG. 2D-E. Cells were then homogenized in lysis buffer containing 50 mM Tris-HCl, pH 7.5, 150 mM NaCl, 1% NP40, 5 mM EDTA, 1 mM DTT, protease and phosphatase inhibitor cocktails (Sigma) and incubated on ice for 30 min followed by 5 cycles of freeze-thaw. Samples were then centrifuged at 14000 rpm at 4° C. for 30 min. Supernatants were then quantified by Bichinchonic acid (Sigma)-based protein estimation. Equal amount of proteins were solubilized in Laemmli buffer, and were resolved by 10%-12% SDS PAGE and transferred onto PVDF membranes (Millipore; Billerica, Mass.). Membranes were blocked in 5% (w/v) non-fat dried milk powder (Sigma) in PBS containing 0.2% Tween 20 (Sigma). […] Immunoreactivity was detected using a chemiluminescent HRP Substrate (Millipore) in a LAS 4010 Chemi-doc Imager (GE Healthcare, Little Chalfont, UK). […]

[3] = test system: CD34+ cells from imatinib-resistant patients (quiescent LSCs); assay: CFSE assay of quiescent LSCs; type: cell-based, Human; details: n=3, 96 h
Experimental: Cells were gated depending on CFSE intensity. […] Apoptosis in these cells was determined by annexin V staining.
For assessing apoptosis in quiescent LSCs, purified CD34^+ cells were first stained with carboxyfluorescein succinimidyl ester (CFSE; Invitrogen) for 30 min. Cells were then washed and resuspended in SFM medium with 5 growth factors and were kept at 37° C. overnight. Next day, cells were treated as indicated in SFM medium with growth factors and were maintained further for 4 days with supplementation of the drugs every 48 h (drug concentrations in FIG. 5 and its description). Cells were then harvested, washed, and were labeled with CD34-PE and Annexin-APC antibodies and then gated into non-dividing cells (CD34^+CFSE^bright) and dividing cell (CD34^+CFSE^dim) population based on CFSE fluorescence intensity. […] Number of cells or apoptosis was determined by flowcytometry.

[4] = test system: CD34+ cells from healthy donors
Experimental: as §1

[5] = rat, in vivo, po
From the text: (§2) Sprague-Dawley rats (n=6 per group) were divided into 3 groups. […] Plasma was separated and processed for analysis by LC-MS/MS. For pharmacokinetic and statistical analysis, plasma concentration versus time data were plotted and analyzed by non-compartmental analysis method using WinNonlin (Pharsight, Mountain View, Calif.) software.
as §2, with “For this SD” for “Sprague-Dawley”

IC50 ([1]; drug alone, FIG. 4A, read-out: IC50, K562 cell viability assay (48 h)) [nM]	IC50 ([1]; in presence of CFZ, read-out: IC50 of dasatinib in presence of CFZ) [nM]	Tmax in combination group compared to individual groups [5]	Structure (SMILES)	CrkL phosphorylation [2]	number of CFSE-bright (non-dividing) cells [3]	viability of CD34+ hematopoietic progenitor cells from healthy controls [4]
640	12.4	–	Cc1nc(Nc2ncc(C(=O)Nc3c(C)cccc3Cl)s2)cc(N2CCN(CCO)CC2)n1 [dasatinib, Dasatinib]	–	–	–
–	–	no change	Cc1ccc(NC(=O)c2ccc(CN3CCN(C)CC3)cc2)cc1Nc1nccc(-c2cccnc2)n1 [imatinib, Imatinib]	successfully inhibited	failed to reduce	No loss of survival
